Assay results from publication PMC12670405, “Second-Generation AURKA-Targeting PROTACs: Structural Optimization toward in Vivo Degradation in Neuroblastoma” (Journal of Medicinal Chemistry, 2025).
Where two headings read alike, the source gives them in different places.

Key:
RPE = assay: IncuCyte live-cell imaging, antiproliferative effect; format: cell-based
MYCN = MYCN protein levels, Simple Western; format: cell-based, human; settings: for MYCN codepletion: IMR-32, 500 nM, 24h postexposure; for DC50: read-out: MYCN DC50 24h
Experimental: Cells were seeded in T-25 flasks at different densities ranging from 1 to 2 million cells per flask and allowed to adhere for 1–2 days. In experiments involving compound treatment, this was done by medium replacement containing the compound(s) of interest in their corresponding concentrations. In competition binding experiments, cells were first pretreated with an excess of MK-5108, thalidomide or MG-132 for 1 h by shaking gently at room temperature prior to addition of SK4454 or SK5527. All samples were normalized to contain the same percentage of DMSO as the negative DMSO controls. Cells were harvested on ice at their respective time points by scraping, washed with ice-cold PBS to collect remaining cells, and centrifuged (2500 rpm, 4 °C). A second washing and centrifugation step was performed prior to collection of the final cell pellets which were then snap-frozen in liquid nitrogen and kept frozen at −80 °C until further processing. Lysis of cell pellets occurred in cold RIPA buffer (0.5% w/v Sodium Deoxycholate, 150 mM NaCl, 50 mM TrisHCl pH 7.5, 0.1% w/v SDS, 1% w/v NP-40) supplemented with protease and phosphatase inhibitors (Roche, #11836145001, #04906845001) by rotating gently at 4 °C for 1h, followed by a centrifugation step for 10 min (10,000 rpm, 4 °C). The supernatant was collected and concentrations of the obtained protein lysates were measured using the Pierce BCA Protein Assay Kit (Thermo Fisher Scientific, #23227).
Simple Western analyses were performed with the Wes instrument (Bio-Techne) using the 12–230 kDa Wes Separation module and the EZ standard pack reagent 1 (Biotechne, #SM-W001, #PS-ST01EZ-8) following the manufacturer’s protocol. Protein lysates were loaded at 0.8 μg/μL under denaturing conditions (0.2 μg/μL for MYCN detection). Chemiluminescence peaks were generated by the Compass Software (Bio-Techne) and the area under the peaks calculated using the Gaussian fit method. Per lane, quantified data were always normalized to that of the loading control (Vinculin) prior to calculating fold changes relative to the negative DMSO control. Mean fold changes are calculated from 3 individual experiments. A list of the primary and secondary antibodies used can be found in the Supporting Information (Supplementary Table S7).
Graphs were generated using GraphPad Prism Software (version 10.1.2) or RStudio (R-4.3.2). All dose–response curves were computed on GraphPad Prism using the Variable Slope (four parameters) equation. Absolute half-maximal degradation (DC50), growth inhibitory (GI50) and enzymatic inhibitory (IC50) concentrations, as well as inhibition constants (Ki) were derived from dose–response curves via interpolation. Statistical tests were performed on GraphPad Prism and detailed in the figure legends. Unless otherwise stated, “n” in the figure legends indicates the number of independent experiments conducted at different times.

SMILES | GI50 (RPE; 72 h, read-out: Cell GI50 72h) [µM] | MYCN codepletion (MYCN) [%] | DC50 (MYCN; IMR-32) [µM] | DC50 (MYCN; NGP) [µM] | DC50 (MYCN; SJNB-8) [µM] | GI50 (RPE; 72h, read-out: GI50) [µM]
Cc1cc(Nc2ccc(F)c(CC3(C(=O)N4CCC(CN5CCN(c6ccc(N7CCC(=O)NC7=O)cn6)CC5)CC4)CCN(Cc4cccc(Cl)c4F)CC3)n2)n[nH]1 [SK4454] | 0.221 | ~50 | 0.117 | 1.36 | 1.39 | –
Cc1cc(Nc2ccc(F)c(CC3(C(=O)N4CCC(F)(CN5CCN(c6ccc(N7CCC(=O)NC7=O)cn6)CC5)CC4)CCN(Cc4cccc(Cl)c4F)CC3)n2)n[nH]1 [SK5527] | 0.46 | ~50 | 0.236 | 0.089 | 0.772 | ~0.5
